Assay results as given in US20100311729A1, “Substituted imidazopyridazines and pyrrolopyrimidines as lipid kinase inhibitors” (priority 2007, published 2010).
pIC50: −log10 of the molar value.

Experiments:
Type in all cases: biochemical
[1] = biological target: T1, PI3K gamma (Homo sapiens, UniProt P48736); assay: PI3 kinase assay (Kinase-Glo luminescence), PI3K gamma; conditions: Enzymatic Data; read-out: PI3K gamma IC50 [umol]
T1 construct: PI3Kγ BV-950 p110g(D144aa)-C-Term His Tag; His tag (C); made in house; host or cells: construct from the Roger Williams lab (MRC LMB) in pVL1393; baculovirus; Tn5 (Trichoplusia ni) or TiniPro insect cells
Procedure, shortened: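 Kinase-Glo luminescence assay with 1 μM ATP and 10 μg/mL phosphatidylinositol (final), reaction started by ATP addition. IC50 from 4-parameter logistic fit of percent inhibition at 8 compound concentrations (usually 10 down to 0.003 […]).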

[2] = biological target: T2, PI3K alfa (Homo sapiens, UniProt P42336); assay: PI3 kinase assay (Kinase-Glo luminescence), PI3K alfa; conditions: Enzymatic Data; read-out: PI3K alfa IC50 [umol]
T2 construct: for the p110-a subunit (with a deletion of the first 20 amino acids); His tag (C); made in house; host or cells: baculovirus; Tn5 (Trichoplusia ni) or TiniPro insect cells
Procedure, shortened: (§1)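 Recombinant PI3K constructs (alfa 10 nM, delta 10 nM, gamma 150 nM) with 1 μM ATP and 10 μg/mL phosphatidylinositol in Tris pH 7.5, MgCl2, NaCl, CHAPS, DTT; 60 min (alfa, delta) or 120 min (gamma) at room temperature. ATP depletion read by Kinase-Glo luminescence; IC50 from 4-parameter logistic fit over 8 concentrations.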

[3] = biological target: T3, PI3K beta (Homo sapiens, UniProt P42338); assay: PI3 kinase assay (Kinase-Glo luminescence), PI3K beta; conditions: Enzymatic Data; read-out: PI3K beta IC50 [umol]
T3 construct: for the full-length p110-b subunit are generated and fused by overlapping PCR; His tag (C); made in house; host or cells: baculovirus; Tn5 (Trichoplusia ni) or TiniPro insect cells
Procedure, shortened: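 PI3Kβ (25 nM, BV-949) with 10 μg/mL phosphatidylinositol in Tris pH 7.5/MgCl2/NaCl/CHAPS/DTT buffer; reaction started with 1 μM ATP, 60 min at room temperature. ATP depletion read by Kinase-Glo luminescence; 8-point dilutions, IC50 by four-parameter logistic fit.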

[4] = biological target: T4, PI3K delta (Homo sapiens, UniProt O00329); assay: PI3 kinase assay (Kinase-Glo luminescence), PI3K delta; conditions: Enzymatic Data; read-out: PI3K delta IC50 [umol]
T4 construct: for the full-length p110-d subunit are generated and fused by overlapping PCR; His tag (C); made in house; host or cells: baculovirus; Tn5 (Trichoplusia ni) or TiniPro insect cells
Procedure, shortened: as §1

T1 sequence (P48736 144-1102 limits assumed): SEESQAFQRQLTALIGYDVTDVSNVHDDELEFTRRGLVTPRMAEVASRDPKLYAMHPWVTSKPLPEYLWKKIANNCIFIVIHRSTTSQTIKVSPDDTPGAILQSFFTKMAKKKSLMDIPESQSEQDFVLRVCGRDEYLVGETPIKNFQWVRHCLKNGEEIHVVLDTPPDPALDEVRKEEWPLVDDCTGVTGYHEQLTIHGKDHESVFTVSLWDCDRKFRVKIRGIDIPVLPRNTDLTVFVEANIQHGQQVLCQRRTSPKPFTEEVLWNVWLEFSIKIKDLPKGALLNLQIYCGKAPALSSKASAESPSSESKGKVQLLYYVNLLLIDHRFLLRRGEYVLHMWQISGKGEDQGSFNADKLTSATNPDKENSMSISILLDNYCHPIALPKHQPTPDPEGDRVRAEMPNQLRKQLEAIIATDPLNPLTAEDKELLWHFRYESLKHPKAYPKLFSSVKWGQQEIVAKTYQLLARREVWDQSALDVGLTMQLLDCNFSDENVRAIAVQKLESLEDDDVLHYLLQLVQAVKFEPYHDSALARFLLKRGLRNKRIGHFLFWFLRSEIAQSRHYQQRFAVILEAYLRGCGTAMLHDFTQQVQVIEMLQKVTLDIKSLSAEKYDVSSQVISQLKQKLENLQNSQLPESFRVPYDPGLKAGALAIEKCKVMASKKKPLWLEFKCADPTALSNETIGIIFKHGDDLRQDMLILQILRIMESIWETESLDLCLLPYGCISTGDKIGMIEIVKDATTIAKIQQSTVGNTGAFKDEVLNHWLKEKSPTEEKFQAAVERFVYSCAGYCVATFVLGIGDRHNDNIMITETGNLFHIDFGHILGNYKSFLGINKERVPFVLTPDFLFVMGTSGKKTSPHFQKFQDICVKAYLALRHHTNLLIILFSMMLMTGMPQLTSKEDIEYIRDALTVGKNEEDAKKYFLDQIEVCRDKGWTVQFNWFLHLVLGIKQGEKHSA
T2 sequence (P42336 with tags, fused parts or gaps limits assumed): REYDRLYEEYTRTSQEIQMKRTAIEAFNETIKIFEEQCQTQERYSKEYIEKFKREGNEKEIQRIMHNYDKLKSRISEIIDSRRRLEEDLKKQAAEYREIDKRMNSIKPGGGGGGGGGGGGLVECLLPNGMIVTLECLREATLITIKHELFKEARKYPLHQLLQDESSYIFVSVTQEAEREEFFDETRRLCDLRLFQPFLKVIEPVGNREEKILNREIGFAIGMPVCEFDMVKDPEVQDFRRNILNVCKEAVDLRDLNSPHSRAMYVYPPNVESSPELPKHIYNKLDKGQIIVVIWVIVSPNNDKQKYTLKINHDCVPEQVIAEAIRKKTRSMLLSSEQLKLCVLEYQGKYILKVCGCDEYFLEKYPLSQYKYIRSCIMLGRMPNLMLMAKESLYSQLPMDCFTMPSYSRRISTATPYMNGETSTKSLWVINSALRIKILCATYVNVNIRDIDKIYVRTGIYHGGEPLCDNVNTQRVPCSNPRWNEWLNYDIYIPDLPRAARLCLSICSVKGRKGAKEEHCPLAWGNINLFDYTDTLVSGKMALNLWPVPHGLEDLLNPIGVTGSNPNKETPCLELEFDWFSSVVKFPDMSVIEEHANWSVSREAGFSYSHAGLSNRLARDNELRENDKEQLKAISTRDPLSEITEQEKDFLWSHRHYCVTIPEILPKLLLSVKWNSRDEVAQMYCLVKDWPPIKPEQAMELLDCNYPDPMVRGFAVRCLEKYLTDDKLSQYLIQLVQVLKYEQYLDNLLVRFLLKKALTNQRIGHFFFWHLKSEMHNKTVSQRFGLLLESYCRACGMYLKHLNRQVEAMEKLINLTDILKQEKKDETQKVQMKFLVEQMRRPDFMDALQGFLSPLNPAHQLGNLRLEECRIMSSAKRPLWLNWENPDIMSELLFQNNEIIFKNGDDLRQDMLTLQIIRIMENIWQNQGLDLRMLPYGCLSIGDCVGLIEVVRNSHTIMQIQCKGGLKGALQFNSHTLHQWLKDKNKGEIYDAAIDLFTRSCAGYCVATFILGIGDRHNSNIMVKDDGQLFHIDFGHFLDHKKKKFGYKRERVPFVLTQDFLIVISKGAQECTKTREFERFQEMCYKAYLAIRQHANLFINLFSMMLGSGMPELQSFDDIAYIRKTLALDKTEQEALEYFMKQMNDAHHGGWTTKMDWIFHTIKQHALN
T4 sequence (O00329 with tags, fused parts or gaps limits assumed): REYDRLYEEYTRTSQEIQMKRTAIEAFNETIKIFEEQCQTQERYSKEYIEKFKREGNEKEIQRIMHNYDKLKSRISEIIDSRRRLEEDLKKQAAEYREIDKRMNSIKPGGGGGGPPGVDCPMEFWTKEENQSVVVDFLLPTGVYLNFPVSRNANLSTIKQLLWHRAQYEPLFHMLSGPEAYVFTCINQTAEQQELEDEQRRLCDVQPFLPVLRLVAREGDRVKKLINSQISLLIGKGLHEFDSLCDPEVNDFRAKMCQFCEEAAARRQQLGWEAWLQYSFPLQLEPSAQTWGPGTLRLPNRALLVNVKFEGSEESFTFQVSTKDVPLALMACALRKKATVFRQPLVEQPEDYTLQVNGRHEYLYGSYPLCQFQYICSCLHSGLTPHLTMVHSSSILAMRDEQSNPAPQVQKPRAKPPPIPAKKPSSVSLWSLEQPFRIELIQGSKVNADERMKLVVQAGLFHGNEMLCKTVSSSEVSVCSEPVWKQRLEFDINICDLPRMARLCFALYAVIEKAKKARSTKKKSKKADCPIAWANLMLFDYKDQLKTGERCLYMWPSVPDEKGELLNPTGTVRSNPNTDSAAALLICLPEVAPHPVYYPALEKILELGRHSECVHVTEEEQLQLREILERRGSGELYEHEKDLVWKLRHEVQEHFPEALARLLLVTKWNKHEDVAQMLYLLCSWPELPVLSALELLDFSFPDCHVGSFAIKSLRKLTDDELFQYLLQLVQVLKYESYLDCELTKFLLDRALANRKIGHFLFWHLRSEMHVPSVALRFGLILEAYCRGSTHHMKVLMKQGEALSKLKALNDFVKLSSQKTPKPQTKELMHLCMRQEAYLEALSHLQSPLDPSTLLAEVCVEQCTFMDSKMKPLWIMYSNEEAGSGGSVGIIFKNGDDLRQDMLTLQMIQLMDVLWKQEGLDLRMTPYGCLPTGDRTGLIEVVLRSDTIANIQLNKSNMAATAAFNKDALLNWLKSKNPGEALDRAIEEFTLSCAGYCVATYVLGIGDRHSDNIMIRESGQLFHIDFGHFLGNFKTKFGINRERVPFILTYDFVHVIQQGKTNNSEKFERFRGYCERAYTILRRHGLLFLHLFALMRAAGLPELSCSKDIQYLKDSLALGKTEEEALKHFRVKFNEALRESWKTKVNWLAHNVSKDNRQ
T3 sequence (P42338 with tags, fused parts or gaps limits assumed): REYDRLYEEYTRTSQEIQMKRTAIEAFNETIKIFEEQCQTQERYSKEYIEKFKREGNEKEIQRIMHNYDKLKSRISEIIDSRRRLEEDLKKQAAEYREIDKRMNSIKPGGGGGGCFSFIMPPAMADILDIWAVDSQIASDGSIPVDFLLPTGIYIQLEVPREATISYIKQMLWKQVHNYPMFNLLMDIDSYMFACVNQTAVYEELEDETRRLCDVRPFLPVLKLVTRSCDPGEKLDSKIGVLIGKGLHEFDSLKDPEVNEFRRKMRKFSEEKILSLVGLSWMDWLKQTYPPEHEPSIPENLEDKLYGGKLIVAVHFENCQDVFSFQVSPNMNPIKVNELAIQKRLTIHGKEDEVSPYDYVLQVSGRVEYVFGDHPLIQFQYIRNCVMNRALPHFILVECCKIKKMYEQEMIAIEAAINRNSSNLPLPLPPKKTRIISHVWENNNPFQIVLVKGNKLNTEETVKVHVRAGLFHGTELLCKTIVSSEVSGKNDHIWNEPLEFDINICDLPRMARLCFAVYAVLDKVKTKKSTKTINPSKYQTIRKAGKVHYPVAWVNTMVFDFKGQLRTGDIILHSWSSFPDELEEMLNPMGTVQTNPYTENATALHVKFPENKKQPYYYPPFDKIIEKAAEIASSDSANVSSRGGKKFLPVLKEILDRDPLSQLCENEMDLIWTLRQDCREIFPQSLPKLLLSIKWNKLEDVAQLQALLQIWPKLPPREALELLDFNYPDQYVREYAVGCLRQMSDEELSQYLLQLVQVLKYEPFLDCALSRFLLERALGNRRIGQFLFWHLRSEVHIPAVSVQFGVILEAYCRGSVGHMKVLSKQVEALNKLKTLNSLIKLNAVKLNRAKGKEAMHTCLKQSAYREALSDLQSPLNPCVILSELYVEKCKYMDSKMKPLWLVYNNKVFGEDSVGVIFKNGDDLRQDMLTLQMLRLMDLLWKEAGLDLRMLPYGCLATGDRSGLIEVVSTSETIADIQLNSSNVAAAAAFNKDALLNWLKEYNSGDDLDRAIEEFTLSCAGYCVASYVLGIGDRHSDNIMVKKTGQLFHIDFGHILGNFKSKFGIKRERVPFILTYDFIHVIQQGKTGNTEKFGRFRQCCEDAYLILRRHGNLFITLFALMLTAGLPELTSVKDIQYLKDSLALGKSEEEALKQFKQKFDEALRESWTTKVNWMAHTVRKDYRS

Row | SMILES | pIC50 [1] | pIC50 [2] | pIC50 [3] | pIC50 [4]
1 | COc1cc(-c2ccc3ncc(-c4cnc(N)c(C(F)(F)F)c4)n3n2)ccc1OC1CCNCC1 [Example 166, 5-{6-(3-Methoxy-4-(piperidin-4-yloxy)-phenyl]-imidazo [1,2-b]pyridazin-3-yl}-3-trifluoro-methyl-pyridin-2-ylamine] | 6.25 | 7.30 | 6.69 | 7.39
2 | Nc1ncc(-c2ccc3ncc(-c4ccc(C(=O)N5CCN(CCc6ccccn6)CC5)cc4)n3n2)cc1C(F)(F)F [Example 135] | 5.70 | 7.34 | 6.23 | 7.23
3 | NCCOc1ccc(-c2ccc3ncc(-c4cnc(N)c(C(F)(F)F)c4)n3n2)cc1 [Example 74, 5-{6-[4-(2-Amino-ethoxy)-phenyl]-imidazo [1,2-b]pyridazin-3-yl}-3-trifluoro-methyl-pyridin-2-ylamine] | 5.84 | 6.80 | 6.83 | 6.79
4 | COc1cc(-c2cnc3ccc(-c4cnc(N)c(C(F)(F)F)c4)nn23)ccc1C(=O)N1CCN(CCc2ccccn2)CC1 [Example 133, {4-[6-(6-Amino-5-trifluoro-methyl-pyridin-3-yl)-imidazo [1,2-b]pyridazin-3-yl]-2-methoxy-phenyl)-[4-(2-pyridin-2-yl-ethyl)-piperazin-1-yl]-methanone] | 5.89 | 7.42 | 6.52 | 7.48
5 | COc1cc(-c2ccc3ncc(-c4ccc(S(=O)(=O)CCN5CCOCC5)cc4)n3n2)ccc1OCCN1CCCC1=O [Example 111, 1-[2-(2-Methoxy-4-{3-[4-(2-morpholin-4-yl-ethane-sulfonyl)-phenyl]-imidazo [1,2-b]pyridazin-6-yl}-phenoxy)-ethyl]-pyrrolidin-2-one] | < 5.04 | 6.02 | 5.12 | 6.37
6 | COc1cc(-c2ccc3ncc(-c4cnc(N)c(C(F)(F)F)c4)n3n2)ccc1OCCCNC(C)=O [Example 52, N-(3-{4-[3-(6-Amino-5-trifluoro-methyl-pyridin-3-yl)-imidazo [1,2-b]pyridazin-6-yl]-2-methoxy-phenoxy}-propyl)-acetamide] | 5.65 | 7.66 | 6.44 | 6.53
7 | COc1nc(-c2cnc3ccc(-c4cnc(N)c(C(F)(F)F)c4)nn23)cnc1N [Example 67, 5-[6-(6-Amino-5-trifIuoro-methyl-pyridin-3-yl)-imidazo[1,2-b]pyridazin-3-yl]-3-methoxy-pyrazin-2-ylamine] | 5.58 | 7.47 | 7.68 | 7.07
8 | COc1cc(-c2ccc3ncc(-c4cnc(N)c(C(F)(F)F)c4)n3n2)ccc1OCCCNC(=O)C1CC1 [Example 65] | 6.32 | 7.59 | 6.30 | 6.46
9 | Nc1ncc(-c2ccc3ncc(-c4cnc5c(c4)ncn5CCN4CCOCC4)n3n2)cc1C(F)(F)F [Example 143, 5-{3-[3-(2-Morpholin-4-yl-ethyl)-3H-imidazo [4,5-b]pyridin-6-yl]-imidazo [1,2-b]pyridazin-6-yl}-3-trifluoro-methyl-pyridin-2-ylamine] | 5.93 | 7.36 | 7.14 | 7.55
10 | O=C1CCCN1CCCOc1ccc(-c2ccc3ncc(-c4cnc5[nH]ccc5c4)n3n2)cc1F [Example 91, 1-(3-{2-Fluoro-4-[3-(1H-pyrrolo [2,3-b]pyridin-5-yl)-imidazo [1,2-b]pyridazin-6-yl]-phenoxy}-propyl)-pyrrolidin-2-one] | 5.18 | 6.81 | 5.12 | 6.28
11 | O=C(NCCCOc1ccc(-c2ccc3ncc(-c4cnc5[nH]ccc5c4)n3n2)cc1)C1CC1 [Example 137, Cyclo-propane-carboxylic acid (3-{4-[3-(1H-pyrrolo[2,3-b]pyridin-5-yl)-imidazo [1,2-b]pyridazin-6-yl]-phenoxy}-propyl)-amide] | < 5.04 | 6.86 | < 5.04 | 6.55
12 | CC(C)(C)OC(=O)NCCn1cc(-c2ccc3ncc(-c4cnc(N)c(C(F)(F)F)c4)n3n2)ccc1=O [Example 69, (2-{5-[3-(6-Amino-5-trifluoro-methyl-pyridin-3-yl)-imidazo [1,2-b]pyridazin-6-yl]-2-oxo-2H-pyridin-1-yl}-ethyl)-carbamic acid tert-butyl ester] | 5.61 | 7.30 | 5.84 | 6.81
13 | Nc1ncc(-c2ccc3ncc(-c4ccc(S(=O)(=O)NCCCN5CCOCC5)cc4)n3n2)cc1C(F)(F)F [Example 134, 4-[6-(6-Amino-5-trifluoro-methyl-pyridin-3-yl)-imidazo [1,2-b]pyridazin-3-yl]-N-(3-morpholin-4-yl-propyl)-benzene-sulfonamide] | < 5.04 | 7.15 | 6.35 | 7.10
14 | Nc1ncc(-c2cnc3ccc(-c4ccc(OCCCN5CCCC5=O)cc4)nn23)cc1C(F)(F)F [Example 89, 1-(3-{4-[3-(6-Amino-5-trifluoro-methyl-pyridin-3-yl)-imidazo [1,2-b]pyridazin-6-yl]-phenoxy}-propyl)-pyrrolidin-2-one] | 6.27 | 7.13 | 5.56 | 7.06
15 | CC(=O)NCCn1cc(-c2ccc3ncc(-c4cnc(N)c(C(F)(F)F)c4)n3n2)ccc1=O [Example 76, N-(2-{5-[3-(6-Amino-5-trifluoro-methyl-pyridin-3-yl)-imidazo [1,2-b]pyridazin-6-yl]-2-oxo-2H-pyridin-1-yl}-ethyl)-acetamide] | 5.49 | 6.80 | 6.17 | 6.82

Next, values leading:

Row | pIC50 [1] | pIC50 [2] | pIC50 [3] | pIC50 [4] | SMILES
16 | 6.08 | 7.59 | 6.30 | 7.52 | CN(C)CCN1CCN(C(=O)c2ccc(-c3cnc4ccc(-c5cnc(N)c(C(F)(F)F)c5)nn34)cc2F)CC1 [Example 107, {4-[6-(6-Amino-5-trifluoro-methyl-pyridin-3-yl)-imidazo [1,2-b]pyridazin-3-yl]-2-fluoro-phenyl}-[4-(2-dimethyl-amino-ethyl)-piperazin-1-yl]-methanone]
17 | 5.77 | 7.04 | 6.65 | 6.92 | COc1ccc(-c2ccc3ncc(-c4cnc(N)cn4)n3n2)cc1OC [Example 38, 5-[6-(3,4-Dimethoxy-phenyl)-imidazo [1,2-b]pyridazin-3-yl]-pyrazin-2-ylamine]
18 | < 5.04 | 7.15 | 6.19 | 6.76 | Nc1ncc(-c2cnc3ccc(-c4ccc5c(c4)OCO5)nn23)cc1C(F)(F)F [Example 155, 5-(6-Benzo[1,3]dioxol-5-yl-imidazo [1,2-b]pyridazin-3-yl)-3-trifluoro-methyl-pyridin-2-ylamine]
19 | 5.87 | 7.55 | 6.81 | 6.86 | COc1cc(-c2ccc3ncc(-c4cnc(N)c(C(F)(F)F)c4)n3n2)ccc1OCCNC(C)=O [Example 62, N-(2-{4-[3-(6-Amino-5-trifluoro-methyl-pyridin-3-yl)-imidazo[1,2-b]pyridazin-6-yl]-2-methoxy-phenoxy}-ethyl)-acetamide]
20 | 6.44 | 7.62 | 6.33 | 7.74 | Nc1ncc(-c2ccc3ncc(-c4ccc(S(=O)(=O)CCN5CCOCC5)cc4)n3n2)cc1C(F)(F)F [Example 105, 5-{3-[4-(2-Morpholin-4-yl-ethane-sulfonyl)-phenyl]-imidazo [1,2-b]pyridazin-6-yl}-3-trifluoro-methyl-pyridin-2-ylamine]
21 | 6.49 | 7.35 | 7.09 | 7.28 | NCC1(COc2ccc(-c3ccc4ncc(-c5cnc(N)c(C(F)(F)F)c5)n4n3)cc2)COC1 [Example 169, 5-{6-[4-(3-Aminomethyl-oxetan-3-ylmethoxy)-phenyl]-imidazo[1,2-b]pyridazin-3-yl}-3-trifluoromethyl-pyridin-2-ylamine]
22 | 6.31 | 8.05 | 7.40 | 7.89 | Nc1ncc(-c2ccc3ncc(-c4ccc(C(=O)NCCCN5CCOCC5)cc4F)n3n2)cc1C(F)(F)F [Example 152, 4-[6-(6-Amino-5-trifluoro-methyl-pyridin-3-yl)-imidazo [1,2-b]pyridazin-3-yl]-3-fluoro-N-(3-morpholin-4-yl-propyl)-benzamide]
